Assay [1] relates to FAS. The assay is described as follows: Liver gene expression in HFD animals: FAS. The assay is classed as in vivo, mice. As to conditions: data not shown. An excerpt:
(§1) To understand the mechanisms through which Humanin decreases liver lipid content, representative genes involved in lipid synthesis (SREBP-1, FAS), lipid oxidation (CPT1b) and lipid packaging and export from liver were studied. […] The role of MTTP was confirmed by studying enzyme activity.

The subject of assay [2] is SREBP-1. Nature of the assay: Liver gene expression in HFD animals: SREBP-1. In kind it is in vivo, mice. As to conditions: data not shown.
From the text: as §1

Assay [3] concerns CPT1b. The assay is described as follows: Liver gene expression in HFD animals: CPT1b. The assay is classed as in vivo, mice. Conditions: data not shown.
From the text: as §1

The subject of assay [4] is triglyceride secretion from liver. The assay is described as follows: Acute ICV infusion of HNG with tyloxapol injection, plasma TG levels, mice. The arrangement: species or system C57BLK6 mice. Conditions: mouse, in vivo. The protocol: (§2) The effect of humanin analog, HNG, on hepatic lipid fluxes was investigated. In the acute study, HNG was infused into third ventricle (ICV) of awake, unstressed and chronically catheterized Sprague-Dawley rats and C57BLK6 mice and studied plasma triglyceride (TG) levels following an injection of Tyloxapol (Triton WR1339, Sigma-Aldrich Corp, St. Louis, Mo.), an inhibitor of TG clearance. Groups of animals were also challenged with high fat diet (HFD) of 60% fat for one month and were treated with either daily injections of saline or of HNG (2 mg/kg). Body weight and Food intake were monitored twice a week. At the end of one month, liver fat was assessed both by histology and estimation of tissue triglycerides and plasma was collected. Total amount of visceral fat (VF) was determined and the specific depots were meticulously dissected and weighed. Tissue samples were snap-frozen for subsequent analysis.
(§3) With infusion of tyloxapol, there was a steady increase in plasma triglyceride levels in both groups from inhibition of TG clearance. […] The rate of TG secretion was calculated in the animals based on plasma triglyceride levels at 0 and 120 min time points using the following equation: secretion rate of TG/hr mg/min=(TG at 120 min−TG at 0 min)/number of hours.

Assay [5] has as its system Apo B. Nature of the assay: Liver gene expression in HFD animals: Apo B. The assay is classed as in vivo, mice. Conditions: livers of HFD animals, HNG 2 mg/kg daily.
From the text: as §1

Assay [6] is described as follows: High fat diet (60% fat) for one month with daily injections of HNG: food intake, body weight, visceral fat, liver fat, serum lipids. As to conditions: HNG 2 mg/kg daily. The assay is classed as in vivo, mice. Here is the method:
as §2
Chronic effects of Humanin on liver lipid content: Groups of animals were challenged with high fat diet (HFD-60% fat) for one month and were treated with either daily injections of saline or HNG (2 mg/kg). At the end of one month, liver fat were assessed both by histology and estimation of tissue triglycerides.

Assay [7] concerns triglyceride secretion from liver. Nature of the assay: Acute ICV infusion of HNG with tyloxapol injection, plasma TG levels, rats. In kind it is in vivo, Sprague-Dawley rats. The protocol: as §2
Acute effects of Humanin on liver fluxes: The effect of HN was studied in acute and chronic treatment models. […]
as §3

In assay [8] the test system is MTTP. The assay is described as follows: MTTP enzyme activity in liver of HFD animals (Roar Biomedical). The assay is classed as in vivo, mice. Conditions: HNG 2 mg/kg daily, p<0.01.
From the text: as §1

Assay [9] deals with Microsomal triglyceride transport protein (MTTP). The assay is described as follows: Liver gene expression in HFD animals: MTTP. The assay is classed as in vivo, mice. Conditions: livers of HFD animals, HNG 2 mg/kg daily.
From the text: as §1

On to “MAPRGFSCLLLLTSEIDLPVKRRA (HOMO SAPIENS) [HN, humanin peptide]”, for which the “expression of FAS vs control” value in assay [1] is “no differences”. Moreover, in [2], the “expression of SREBP-1 vs control” value is “no differences”. Also, the “expression of CPT1b vs control” value in assay [3] is listed as “no differences”.

As for “MAPRGFSCLLLLTGEIDLPVKRRA (ANALOG OF HUMAN HUMANIN PEPTIDE) [HNG]”, the “triglyceride secretion from liver” value in assay [4] is reported as “increases”. Besides, the “expression of Apo B vs control” value in [5] is listed as “significantly higher”. Besides, in assay [6] (HFD for 4 weeks), the “visceral fat (VF) gain vs control” value is listed as “gained significantly less VF” and the “weight gain vs control” value is “gained significantly less weight”. Besides, the “liver fat (hepatic triglyceride content)” value in [6] (HFD one month, p<0.05 vs control 70.83±3.74) was 59.78±2.24 μg/mg of tissue. Further, the “serum TG levels at 120 min” value in assay [7] (120 min after tyloxapol 600 mg/kg, p<0.05 vs aCSF 4.33±0.33) came out at 5.5 ± 0.29 mg/mL. For the same sequence, in [7] ((TG at 120 min − TG at 0 min)/number of hours, p<0.05 vs aCSF 2.23±0.16), the “rate of TG secretion” value is 2.7 ± 0.2 mg/mL/h. Also, the “MTTP activity vs control” value in assay [8] is “significantly higher”. Besides, in assay [9], the “expression of MTTP vs control” value is recorded as “significantly higher”.

The values are drawn from patent US20130109635A1, “Humanin Decreases Liver Fat and Visceral Fat Accumulation” (priority 2011, published 2013).
